The values below come from PMC10669129 (2023).

The test system of assay [1] is 5-HT-binding DNA aptamer (44-mer) (DNA, aptamer) CGACTGGTAGGCAGATAGGGGAAGCTGATTCGATGCGTGGGTCG
Description: square wave voltammetry. To be noted: Mg2+ 2 mM, 1X PBS; apparent; 30 min exposure in 1X PBS; read in ferri/ferrocyanide 5 mM, pH 7.1; Hill fit.

The test system is the same in assay [2]. The assay can be described thus: electrochemical impedance spectroscopy. To be noted: Mg2+ 2 mM, 1X PBS; apparent; 30 min exposure in 1X PBS; read in ferri/ferrocyanide 5 mM, pH 7.1; Hill fit.
Assay [3] has the same test system. Description: EIS and SWV; single-frequency EIS. As to conditions: Mg2+ 2 mM, 1X PBS; selectivity test; highest concentration not given in text.
For assay [4] the test system is unchanged. Description: single-frequency EIS. To be noted: Mg2+ 2 mM, 1X PBS; some cross-reactivity; microfluidic flow; concentration not given.

For `NCCc1c[nH]c2ccc(O)cc12`, the “kd,eff” value is 306.76 ± 41.54 nM in assay [1] and 343.54 ± 61.03 nM in assay [2].
For the molecule `NCCc1ccc(O)c(O)c1`, the binding entry in assay [3] is “no”.
On to `NC[C@H](O)c1ccc(O)c(O)c1`, for which, in assay [3], the binding result is on record as “no”.
In the case of `N[C@@H](Cc1c[nH]c2ccc(O)cc12)C(=O)O`, in assay [4], the binding entry was “weak”.
Regarding `N[C@@H](Cc1c[nH]c2ccccc12)C(=O)O`, the binding entry in assay [4] is “weak”.
On the same count and under the same terms, the same measure for `O=C(O)Cc1c[nH]c2ccc(O)cc12`: “weak”.
